A word on the IC50: it is the midpoint of a concentration-inhibition curve.

In one assay the target is benzodiazepine receptor. The experiment in a line: benzodiazepine receptor binding assay (NovaScreen), [3H]Flunitrazipam radioligand. Set-up: species or system bovine. The settings on record: commercially available reference samples (Table 3 footnote). The source says: After the final compounds are formed using the inventive reaction apparatus, method and system, they are individually tested for biological activity once they are isolated. For example, the method of Sweetnam, et al, Molecular Pharmacology 1986; 29:299 employing bovine cortical membranes as a receptor source and a radiolabeled benzodiazepine, such as Flunitrazepam, to determine competitive ligand binding to the benzodiazepine receptor (central [brain] localized) and some quantitative measure of relative binding potency such as KD or IC50 values. Performing this type of assay serves two purposes: 1) to discover new compounds with biological activity in a given biological screening assay and 2) the development of a relationship between the structural variations contained within the series and biological potency. This second utility is known as development of a structure activity relationship (SAR). This type of assay can be done using the compounds isolated from the array synthesis for any receptor binding screen or assay (screening for receptor agonists or antagonists), enzyme functional assays (measuring competitive or noncompetitive inhibition of the catalyzed reaction), and the like. This strategy may be used to screen for pharmaceutical agents, veterinary agents, agricultural agents, diagnostic reagents, and the like.
To verify that the compounds produced could be used directly in a biological assay, the crude benzodiazepines are tested for activity in a benzodiazepine receptor binding assay without further purification. (The assay was performed using the commercially available NovaScreen® assay system contracted by Scios-Nova Pharmaceutical Corp., Baltimore, Md., whereby bovine cortical membrane preparations were used as the source of receptor and the radioligand employed was [^3 H]Flunitrazipam while the positive control was Clonazepam.) The calculated IC50 's from three concentrations (average of two determinations) for the individual compounds are shown in Table 3.
For `CN1C(=O)CN=C(c2ccccc2)c2cc(Cl)ccc21` [Diazepam, reference compound], the IC50 is 0.00067 µM.

Still in this assay, the particulars now being: crude benzodiazepines without further purification; bovine cortical membranes; [3H]Flunitrazipam; calculated from three concentrations (average of two determinations).
As for `CC1N=C(c2ccccc2)c2cc([N+](=O)[O-])ccc2NC1=O` (stereo not drawn) [Number 4], the IC50 is 0.482 µM.

Regarding `CC1N=C(c2ccccc2)c2ccccc2NC1=O` (stereo not drawn) [Number 1], the IC50 is 5.79 µM. As for `Cc1ccc2c(c1)N(C(C)C)C(=O)CN=C2c1ccccc1` [Number 13], the IC50 is 18.6 µM. Same read-out and setting: to `CN1C(=O)CN=C(c2ccccc2)c2cc([N+](=O)[O-])ccc21` [Number 14] belongs 0.064 µM; to `CC1N=C(c2ccccc2)c2cc([N+](=O)[O-])ccc2N(C)C1=O` (stereo not drawn) [Number 6], 1 µM. Consider `O=C1CN=C(c2ccccc2)c2cc([N+](=O)[O-])ccc2N1` [Number 12], for which the half-inhibitory concentration (IC50) is 0.016 µM. Consider `O=C1CN=C(C2CCCCC2)c2ccccc2N1` [Number 15], for which the half-maximal inhibitory concentration (IC50) is 25.7 µM. In the case of `O=C1CN=C(c2ccccc2)c2cc(Cl)ccc2N1` [Number 10], the 50% inhibitory concentration (IC50) is 0.032 µM. Consider `O=C1CN=C(c2ccccc2)c2ccccc2N1` [Number 9], for which the 50% inhibitory concentration (IC50) is 0.515 µM. As for `CC1N=C(c2cccs2)c2ccccc2NC1=O` (stereo not drawn) [Number 8], the 50% inhibitory concentration (IC50) is 5.9 µM.

With `O=C1Nc2ccc([N+](=O)[O-])cc2C(c2ccccc2)=NC1Cc1c[nH]c2ccccc12` (stereo not drawn) [Number 20], the IC50 was 12.7 µM. For the compound `CC1N=C(c2ccccc2)c2cc(Cl)ccc2NC1=O` (stereo not drawn) [Number 2], the IC50 was 0.089 µM.

Take `COc1ccc(C2=NCC(=O)Nc3ccccc32)cc1` [Number 11]: the IC50 was 28.3 µM. On to `O=C1CN=C(c2cccs2)c2ccccc2N1` [Number 16], for which the half-maximal inhibitory concentration (IC50) is 1.12 µM.

Still in this assay, the particulars now being: crude benzodiazepines without further purification; bovine cortical membranes; [3H]Flunitrazipam; cells that print their own unit mM.
Turning to `CC1N=C(C2CCCCC2)c2ccccc2NC1=O` (stereo not drawn) [Number 7], the concentration for half-maximal inhibition (IC50) is above 1000 µM. `Cc1ccc2c(c1)N(C(C)C)C(=O)C(C)N=C2c1ccccc1` (stereo not drawn) [Number 5] came in with an IC50 above 1000 µM. Consider `COc1ccc(C2=NC(C)C(=O)Nc3ccccc32)cc1` (stereo not drawn) [Number 3], for which the IC50 was above 1000 µM. As to `COc1ccc(C2=NC(Cc3c[nH]c4ccccc34)C(=O)Nc3ccccc32)cc1` (stereo not drawn) [Number 19], the IC50 is above 1000 µM. Still for that read-out and setting: next, `O=C1Nc2ccc(Cl)cc2C(c2ccccc2)=NC1Cc1c[nH]c2ccccc12` (stereo not drawn) [Number 18]: above 1000 µM; `O=C1Nc2ccccc2C(c2ccccc2)=NC1Cc1c[nH]c2ccccc12` (stereo not drawn) [Number 17]: above 1000 µM.

These data come from patent US5714127A, “System for multiple simultaneous synthesis” (Warner-Lambert Company, priority 1995, dated 1998).
